Molecular target: T1, human V1a receptor (Homo sapiens, UniProt P37288)
T1 construct: expressed in transfected cells; host or cells: HEK293 cells, transiently transfected; membranes prepared
Assay: human V1a receptor binding (3H-Vasopressin SPA, HEK293 membranes)
Details: membranes of HEK293 cells transiently transfected with human V1a receptor, Ki by Cheng-Prussoff, read-out: pKi (hV1a) (converted)
Method in brief: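 HEK293 membranes transiently expressing cloned human V1a receptor, bound to yttrium silicate SPA beads in Tris/NaCl/KCl/CaCl2/MgCl2 buffer. Test compounds in 2% DMSO competed with 3H-vasopressin (4 nM solution added) for 1 h at room temperature; non-specific binding defined with cold vasopressin. IC50 from non-linear fit, Ki via Cheng-Prusoff.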

T1 sequence (P37288 whole entry): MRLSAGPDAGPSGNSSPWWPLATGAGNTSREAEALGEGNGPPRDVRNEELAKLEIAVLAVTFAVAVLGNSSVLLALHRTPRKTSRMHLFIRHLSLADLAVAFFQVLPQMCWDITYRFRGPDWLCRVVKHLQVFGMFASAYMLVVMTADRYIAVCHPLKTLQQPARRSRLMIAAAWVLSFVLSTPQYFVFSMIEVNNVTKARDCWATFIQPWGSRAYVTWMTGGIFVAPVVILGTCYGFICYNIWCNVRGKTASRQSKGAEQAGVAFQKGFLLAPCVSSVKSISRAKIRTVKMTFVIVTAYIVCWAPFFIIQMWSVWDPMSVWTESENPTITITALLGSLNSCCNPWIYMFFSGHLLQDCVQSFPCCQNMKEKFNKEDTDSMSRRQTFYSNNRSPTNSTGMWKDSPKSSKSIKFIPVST

Molecule `Cc1nc([C@H]2CC[C@H](c3nnc4n3-c3ccc(Cl)cc3CN(C)C4)CC2)sc1C` [Example 106, trans-8-Chloro-1-[4-(4,5-dimethyl-thiazol-2-yl)-cyclohexyl]-5-methyl-5,6-dihydro-4H-2,3,5,10b-tetraaza-benzo[e]azulene] has a Ki of 2.29 nM.
Molecule `CN1Cc2cc(Cl)ccc2-n2c(nnc2[C@H]2CC[C@H](c3noc4c3CCC4)CC2)C1` [Example 107, trans-8-Chloro-1-[4-(5,6-dihydro-4H-cyclopenta[d]isoxazol-3-yl)-cyclohexyl]-5-methyl-5,6-dihydro-4H-2,3,5,10b-tetraaza-benzo[e]azulene] has a Ki of 1.58 nM.
Work on `CC(C)(C)OC(=O)N1Cc2cc(Cl)ccc2-n2c(nnc2[C@H]2CC[C@H](c3noc(CO)c3CO)CC2)C1` [Example 108, trans-1-[4-(4,5-Bis-hydroxymethyl-isoxazol-3-yl)-cyclohexyl]-8-chloro-4H,6H-2,3,5,10b-tetraaza-benzo[e]azulene-5-carboxylic acid tert-butyl ester] yielded a Ki of 12.6 nM.
`Clc1ccc2c(c1)CNCc1nnc([C@H]3CC[C@H](n4cccn4)CC3)n1-2` [Example 110, trans-8-Chloro-1-(4-pyrazol-1-yl-cyclohexyl)-5,6-dihydro-4H-2,3,5,10b-tetraaza-benzo[e]azulene] showed a Ki of 42.7 nM.
Work on `CN1Cc2cc(Cl)ccc2-n2c(nnc2[C@H]2CC[C@H](n3cccn3)CC2)C1` [Example 111, trans-8-Chloro-5-methyl-1-(4-pyrazol-1-yl-cyclohexyl)-5,6-dihydro-4H-2,3,5,10b-tetraaza-benzo[e]azulene] yielded a Ki of 17 nM.
With `CC(C)(C)OC(=O)N1Cc2cc(Cl)ccc2-n2c(nnc2[C@H]2CC[C@@H](n3cccn3)CC2)C1` [Example 112, cis-8-Chloro-1-(4-pyrazol-1-yl-cyclohexyl)-4H,6H-2,3,5,10b-tetraaza-benzo[e]azulene-5-carboxylic acid tert-butyl ester] the Ki was 75.9 nM.
Work on `Clc1ccc2c(c1)CNCc1nnc([C@H]3CC[C@@H](n4cccn4)CC3)n1-2` [Example 113, cis-8-Chloro-1-(4-pyrazol-1-yl-cyclohexyl)-5,6-dihydro-4H-2,3,5,10b-tetraaza-benzo[e]azulene] yielded a Ki of 794 nM.
In the case of `CN1Cc2cc(Cl)ccc2-n2c(nnc2[C@H]2CC[C@@H](n3cccn3)CC2)C1` [Example 114, cis-8-Chloro-5-methyl-1-(4-pyrazol-1-yl-cyclohexyl)-5,6-dihydro-4H-2,3,5,10b-tetraaza-benzo[e]azulene], the Ki is reported as 794 nM.
`Cc1cc(C)n([C@H]2CC[C@H](c3nnc4n3-c3ccc(Cl)cc3CN(C(=O)OC(C)(C)C)C4)CC2)n1` [Example 115, trans-8-Chloro-1-[4-(3,5-dimethyl-pyrazol-1-yl)-cyclohexyl]-4H,6H-2,3,5,10b-tetraaza-benzo[e]azulene-5-carboxylic acid tert-butyl ester] showed a Ki of 0.17 nM.
`Cc1cc(C)n([C@H]2CC[C@H](c3nnc4n3-c3ccc(Cl)cc3CNC4)CC2)n1` [Example 116, trans-8-Chloro-1-[4-(3,5-dimethyl-pyrazol-1-yl)-cyclohexyl]-5,6-dihydro-4H-2,3,5,10b-tetraaza-benzo[e]azulene] showed a Ki of 72.4 nM.
Molecule `Cc1cc(C)n([C@H]2CC[C@H](c3nnc4n3-c3ccc(Cl)cc3CN(C)C4)CC2)n1` [Example 117, trans-8-Chloro-1-[4-(3,5-dimethyl-pyrazol-1-yl)-cyclohexyl]-5-methyl-5,6-dihydro-4H-2,3,5,10b-tetraaza-benzo[e]azulene] has a Ki of 6.92 nM.
In the case of `Cc1nn([C@H]2CC[C@H](c3nnc4n3-c3ccc(Cl)cc3CN(C(=O)OC(C)(C)C)C4)CC2)c(C)c1C` [Example 118, trans-8-Chloro-1-[4-(3,4,5-trimethyl-pyrazol-1-yl)-cyclohexyl]-4H,6H-2,3,5,10b-tetraaza-benzo[e]azulene-5-carboxylic acid tert-butyl ester], the Ki is reported as 0.832 nM.
For `Cc1nn([C@H]2CC[C@H](c3nnc4n3-c3ccc(Cl)cc3CNC4)CC2)c(C)c1C` [Example 119, trans-8-Chloro-1-[4-(3,4,5-trimethyl-pyrazol-1-yl)-cyclohexyl]-5,6-dihydro-4H-2,3,5,10b-tetraaza-benzo[e]azulene], the Ki was 2.19 nM.
`Cc1nn([C@H]2CC[C@H](c3nnc4n3-c3ccc(Cl)cc3CN(C)C4)CC2)c(C)c1C` [Example 120, trans-8-Chloro-1-[4-(3,4,5-trimethyl-pyrazol-1-yl)-cyclohexyl]-5-methyl-5,6-dihydro-4H-2,3,5,10b-tetraaza-benzo[e]azulene] showed a Ki of 1.95 nM.

Reference: patent US8513238B2 (Hoffmann-La Roche Inc., priority 2010, dated 2013)
